Reference: US20090068290A1, “BIFEPRUNOX DOSES FOR TREATING SCHIZOPHRENIA” (priority 2006, published 2009)

Columns and labels:
Format in all cases: in vivo, human
[1] = test system: adult subjects with schizophrenia; assay: PANSS positive subscale score, Clinical Study One; conditions: ITT; for PANSS Positive Subscale Score, Trt Effect (bifeprunox—placebo): ANCOVA
Method: (§1) There were five treatment groups in this study. […] Study medication was administered once daily. After Baseline measurements were performed, the titration phase was begun. Bifeprunox treated subjects were titrated up to 5 mg, 10 mg or 20 mg according to a standardized titration schedule (Day 1: 0.125 mg, Day 2: 0.25 mg, Day 3: 0.5 mg, Day 4: 1.0 mg, Day 5: 2.0 mg, Day 6: 5.0 mg, Day 7: 10.0 mg, Day 8: 20 mg). When the assigned dose was reached, subjects were maintained at that dose for the remainder of the six-week treatment period.
The change in the Positive and Negative Symptom Scale (PANSS) total score, from baseline to endpoint, was the primary outcome measure. Secondary efficacy measures included: PANSS positive, PANSS negative, PANSS general psychopathology (GPP) score, PANSS-derived Brief Psychiatric Rating Scale (BPRS) score, Clinical Global Impressions-Severity of Illness (CGI-S), CGI-Improvement (CGI-I) scores, and responder rates. Safety and tolerability evaluations included extrapyramidal symptoms (EPS), weight gain, lipid profile, and serum prolactin.

[2] = test system: adult subjects with schizophrenia; assay: BPRS psychosis cluster score, Clinical Study One; conditions: for Change from Baseline in BPRS Psychosis Cluster Score, Mean (S.D.) / Change from Baseline in BPRS Psychosis Cluster Score, Median / Change from Baseline in BPRS Psychosis Cluster Score, Trt Effect (bifeprunox—placebo) / Change from Baseline in BPRS Psychosis Cluster Score, Mean S.D.: ITT population
Method: as §1

[3] = test system: adult subjects with schizophrenia; assay: PANSS responder rates, Clinical Study One; conditions: for PANSS responder rate, 20% definition: Endpoint LOCF; for PANSS Responder at Endpoint (LOCF), 20% Definition / PANSS Responder at Endpoint (LOCF), 25% Definition / PANSS Responder at Endpoint (LOCF), 30% Definition / PANSS Responder at Endpoint (LOCF), 35% Definition: ITT
Method: as §1

[4] = Bifeprunox 10 mg, Endpoint LOCF
[5] = Bifeprunox 20 mg, Endpoint LOCF

With O=c1[nH]c2cccc(N3CCN(Cc4cccc(-c5ccccc5)c4)CC3)c2o1 [Bifeprunox, 7-[4-([1,1′-biphenyl]-3-ylmethyl)-1-piperazinyl]-2(3H)-benzoxazolone] the “Change from Baseline in PANSS Positive Subscale Score, Mean (S.D.)” value ([1]; Bifeprunox 5 mg, Endpoint LOCF) was −3.2 (5.2), the “Change from Baseline in PANSS Positive Subscale Score, Median” value ([1]; Bifeprunox 5 mg, Endpoint LOCF) was −3 and the “PANSS Positive Subscale Score, Trt Effect (bifeprunox—placebo)” value ([1]; Bifeprunox 5 mg, Endpoint LOCF) was −1.1. For the same compound, the “Change from Baseline in PANSS Positive Subscale Score, Mean (S.D.)” value ([1]; Bifeprunox 5 mg, Week 1, LOCF) was −1.1 (3.4), the “Change from Baseline in PANSS Positive Subscale Score, Median” value ([1]; Bifeprunox 5 mg, Week 1, LOCF) was −1 and the “Change from Baseline in PANSS Positive Subscale Score, Mean (S.D.)” value ([1]; Bifeprunox 5 mg, Week 2, LOCF) was −2.1 (4.0). The “Change from Baseline in PANSS Positive Subscale Score, Median” value ([1]; Bifeprunox 5 mg, Week 2, LOCF) was −2, the “Change from Baseline in PANSS Positive Subscale Score, Mean (S.D.)” value ([1]; Bifeprunox 5 mg, Week 3, LOCF) was −2.6 (4.7) and the “Change from Baseline in PANSS Positive Subscale Score, Median” value ([1]; Bifeprunox 5 mg, Week 3, LOCF) was −3. For the same compound, the “Change from Baseline in PANSS Positive Subscale Score, Mean (S.D.)” value ([1]; Bifeprunox 5 mg, Week 4, LOCF) was −3.0 (5.0), the “Change from Baseline in PANSS Positive Subscale Score, Median” value ([1]; Bifeprunox 5 mg, Week 4, LOCF) was −4 and the “Change from Baseline in PANSS Positive Subscale Score, Mean (S.D.)” value [1, 4] was −1.4 (6.1). The “Change from Baseline in PANSS Positive Subscale Score, Median” value [1, 4] was −1, the “PANSS Positive Subscale Score, Trt Effect (bifeprunox—placebo)” value [1, 4] was 0.7 and the “Change from Baseline in PANSS Positive Subscale Score, Mean (S.D.)” value ([1]; Bifeprunox 10 mg, Week 1, LOCF) was −0.6 (3.9). For the same compound, the “Change from Baseline in PANSS Positive Subscale Score, Median” value ([1]; Bifeprunox 10 mg, Week 1, LOCF) was −1, the “Change from Baseline in PANSS Positive Subscale Score, Mean (S.D.)” value ([1]; Bifeprunox 10 mg, Week 2, LOCF) was −1.2 (4.7) and the “Change from Baseline in PANSS Positive Subscale Score, Median” value ([1]; Bifeprunox 10 mg, Week 2, LOCF) was −1. The “Change from Baseline in PANSS Positive Subscale Score, Mean (S.D.)” value ([1]; Bifeprunox 10 mg, Week 3, LOCF) was −1.1 (5.5), the “Change from Baseline in PANSS Positive Subscale Score, Median” value ([1]; Bifeprunox 10 mg, Week 3, LOCF) was −1 and the “Change from Baseline in PANSS Positive Subscale Score, Mean (S.D.)” value ([1]; Bifeprunox 10 mg, Week 4, LOCF) was −1.1 (5.6). For the same compound, the “Change from Baseline in PANSS Positive Subscale Score, Median” value ([1]; Bifeprunox 10 mg, Week 4, LOCF) was −1, the “Change from Baseline in PANSS Positive Subscale Score, Mean (S.D.)” value [1, 5] was −3.5 (5.1) and the “Change from Baseline in PANSS Positive Subscale Score, Median” value [1, 5] was −3. The “PANSS Positive Subscale Score, Trt Effect (bifeprunox—placebo)” value [1, 5] was −1.5, the “Change from Baseline in PANSS Positive Subscale Score, Mean (S.D.)” value ([1]; Bifeprunox 20 mg, Week 1, LOCF) was −1.7 (3.5) and the “Change from Baseline in PANSS Positive Subscale Score, Median” value ([1]; Bifeprunox 20 mg, Week 1, LOCF) was −1. For the same compound, the “Change from Baseline in PANSS Positive Subscale Score, Mean (S.D.)” value ([1]; Bifeprunox 20 mg, Week 2, LOCF) was −2.7 (4.3), the “Change from Baseline in PANSS Positive Subscale Score, Median” value ([1]; Bifeprunox 20 mg, Week 2, LOCF) was −3 and the “Change from Baseline in PANSS Positive Subscale Score, Mean (S.D.)” value ([1]; Bifeprunox 20 mg, Week 3, LOCF) was −3.3 (4.4). For the same compound, the “Change from Baseline in PANSS Positive Subscale Score, Median” value ([1]; Bifeprunox 20 mg, Week 3, LOCF) was −3, the “Change from Baseline in PANSS Positive Subscale Score, Mean (S.D.)” value ([1]; Bifeprunox 20 mg, Week 4, LOCF) was −3.5 (4.8) and the “Change from Baseline in PANSS Positive Subscale Score, Median” value ([1]; Bifeprunox 20 mg, Week 4, LOCF) was −3. The “BPRS psychosis cluster score, treatment effect (bifeprunox—placebo)” value ([2]; Bifeprunox 5 mg, Endpoint LOCF) was −0.9, the “Change from Baseline in BPRS Psychosis Cluster Score, Mean (S.D.)” value ([2]; Bifeprunox 5 mg, Endpoint LOCF) was 2.5 (3.8) and the “Change from Baseline in BPRS Psychosis Cluster Score, Median” value ([2]; Bifeprunox 5 mg, Endpoint LOCF) was −3. The “Change from Baseline in BPRS Psychosis Cluster Score, Trt Effect (bifeprunox—placebo)” value (“Change from Baseline … (bifeprunox—placebo)” below) ([2]; Bifeprunox 5 mg, Endpoint LOCF) was −0.9, the “Change from Baseline in BPRS Psychosis Cluster Score, Mean (S.D.)” value ([2]; Bifeprunox 5 mg, Week 1, LOCF) was −1.0 (2.6) and the “Change from Baseline in BPRS Psychosis Cluster Score, Median” value ([2]; Bifeprunox 5 mg, Week 1, LOCF) was −1. The “Change from Baseline in BPRS Psychosis Cluster Score, Mean S.D.” value ([2]; Bifeprunox 5 mg, Week 2, LOCF) was −1.8 (3.3), the “Change from Baseline in BPRS Psychosis Cluster Score, Median” value ([2]; Bifeprunox 5 mg, Week 2, LOCF) was −2 and the “Change from Baseline in BPRS Psychosis Cluster Score, Mean (S.D.)” value ([2]; Bifeprunox 5 mg, Week 3, LOCF) was −2.2 (3.6). The “Change from Baseline in BPRS Psychosis Cluster Score, Median” value ([2]; Bifeprunox 5 mg, Week 3, LOCF) was −2, the “Change from Baseline in BPRS Psychosis Cluster Score, Mean (S.D.)” value ([2]; Bifeprunox 5 mg, Week 4, LOCF) was −24 (3.8) and the “Change from Baseline in BPRS Psychosis Cluster Score, Median” value ([2]; Bifeprunox 5 mg, Week 4, LOCF) was −3. The “BPRS psychosis cluster score, treatment effect (bifeprunox—placebo)” value [2, 4] was 0.4, the “Change from Baseline in BPRS Psychosis Cluster Score, Mean (S.D.)” value [2, 4] was −1.2 (4.6) and the “Change from Baseline in BPRS Psychosis Cluster Score, Median” value [2, 4] was 0. The “Change from Baseline … (bifeprunox—placebo)” value [2, 4] was 0.4, the “Change from Baseline in BPRS Psychosis Cluster Score, Mean (S.D.)” value ([2]; Bifeprunox 10 mg, Week 1, LOCF) was −0.7 (3.0) and the “Change from Baseline in BPRS Psychosis Cluster Score, Median” value ([2]; Bifeprunox 10 mg, Week 1, LOCF) was −1. The “Change from Baseline in BPRS Psychosis Cluster Score, Mean S.D.” value ([2]; Bifeprunox 10 mg, Week 2, LOCF) was −1.1 (3.7), the “Change from Baseline in BPRS Psychosis Cluster Score, Median” value ([2]; Bifeprunox 10 mg, Week 2, LOCF) was −1 and the “Change from Baseline in BPRS Psychosis Cluster Score, Mean (S.D.)” value ([2]; Bifeprunox 10 mg, Week 3, LOCF) was −1.1 (4.2). For the same compound, the “Change from Baseline in BPRS Psychosis Cluster Score, Median” value ([2]; Bifeprunox 10 mg, Week 3, LOCF) was −1, the “Change from Baseline in BPRS Psychosis Cluster Score, Mean (S.D.)” value ([2]; Bifeprunox 10 mg, Week 4, LOCF) was −1.1 (4.3) and the “Change from Baseline in BPRS Psychosis Cluster Score, Median” value ([2]; Bifeprunox 10 mg, Week 4, LOCF) was −1. For the same compound, the “Change from Baseline in BPRS Psychosis Cluster Score, Mean (S.D.)” value [2, 5] was −2.7 (3.9), the “Change from Baseline in BPRS Psychosis Cluster Score, Median” value [2, 5] was −3 and the “Change from Baseline … (bifeprunox—placebo)” value [2, 5] was −1.1. For the same compound, the “Change from Baseline in BPRS Psychosis Cluster Score, Mean (S.D.)” value ([2]; Bifeprunox 20 mg, Week 1, LOCF) was −1.5 (2.6), the “Change from Baseline in BPRS Psychosis Cluster Score, Median” value ([2]; Bifeprunox 20 mg, Week 1, LOCF) was −1 and the “Change from Baseline in BPRS Psychosis Cluster Score, Median” value ([2]; Bifeprunox 20 mg, Week 2, LOCF) was −2. For the same compound, the “Change from Baseline in BPRS Psychosis Cluster Score, Mean (S.D.)” value ([2]; Bifeprunox 20 mg, Week 3, LOCF) was −2.7 (3.5), the “Change from Baseline in BPRS Psychosis Cluster Score, Median” value ([2]; Bifeprunox 20 mg, Week 3, LOCF) was −3 and the “Change from Baseline in BPRS Psychosis Cluster Score, Mean (S.D.)” value ([2]; Bifeprunox 20 mg, Week 4, LOCF) was −2.8 (3.7). For the same compound, the “Change from Baseline in BPRS Psychosis Cluster Score, Median” value ([2]; Bifeprunox 20 mg, Week 4, LOCF) was −3, the “BPRS psychosis cluster score, treatment effect (bifeprunox—placebo)” value ([2]; bifeprunox 20 mg, Endpoint LOCF) was −1.1 and the “PANSS responder rate, 20% definition” value ([3]; Bifeprunox 5 mg) was 28%. For the same compound, the “PANSS Responder at Endpoint (LOCF), 20% Definition” value ([3]; Bifeprunox 5 mg) was 31 (28) n (%), the “PANSS Responder at Endpoint (LOCF), 25% Definition” value (shortened to “PANSS Responder … 25% Definition”) ([3]; Bifeprunox 5 mg) was 25 (23) n (%) and the “PANSS Responder at Endpoint (LOCF), 30% Definition” value (from here on “PANSS Responder … 30% Definition”) ([3]; Bifeprunox 5 mg) was 16 (15) n (%). For the same compound, the “PANSS Responder at Endpoint (LOCF), 35% Definition” value ([3]; Bifeprunox 5 mg) was 11 (10) n (%), the “PANSS responder rate, 20% definition” value ([3]; Bifeprunox 10 mg) was 24% and the “PANSS Responder at Endpoint (LOCF), 20% Definition” value ([3]; Bifeprunox 10 mg) was 28 (24) n (%). The “PANSS Responder … 25% Definition” value ([3]; Bifeprunox 10 mg) was 22 (19) n (%), the “PANSS Responder … 30% Definition” value ([3]; Bifeprunox 10 mg) was 12 (10) n (%) and the “PANSS Responder at Endpoint (LOCF), 35% Definition” value ([3]; Bifeprunox 10 mg) was 7 (6) n (%). For the same compound, the “PANSS Responder at Endpoint (LOCF), 20% Definition” value ([3]; Bifeprunox 20 mg) was 38 (34) n (%), the “PANSS Responder … 25% Definition” value ([3]; Bifeprunox 20 mg) was 27 (24) n (%) and the “PANSS Responder … 30% Definition” value ([3]; Bifeprunox 20 mg) was 18 (16) n (%).
